For orientation: Ki means the equilibrium dissociation constant of an inhibitor or competing ligand from its target.

Like-named read-outs stand apart in the source and are kept apart here.

The values below come from patent publication US9637496B2, “Substituted 7-azabicycles and their use as orexin receptor modulators” (priority 2013, dated 2017).

For one assay, the target named is rat orexin 1 receptor (Rattus norvegicus (Rat), UniProt P56718). The assay can be described thus: Rat orexin 1 receptor radioligand binding (competitive binding, HEK293 membranes). Conditions: read-out: rOX1 Ki.
A further assay deals with human orexin 1 receptor (Homo sapiens (Human), UniProt O43613). As to the kind of experiment: Human orexin 1 receptor radioligand binding (competitive binding, CHO membranes). The note with it: read-out: hOX1 Ki.
Another assay deals with human orexin 2 receptor (Homo sapiens (Human), UniProt O43614). The assay can be described thus: Human orexin 2 receptor radioligand binding ([3H]-EMPA competition, HEK293 membranes). The note with it: read-out: hOX2 Ki.
Setting [1] is: rat orexin 1 receptor, Table 2, averages from between 2-20 runs.
Setting [2] is: human orexin 1 receptor, Table 2, averages from between 2-20 runs.
[3] abbreviates: human orexin 2 receptor, Table 2, averages from between 2-20 runs.
[4] abbreviates: Table 2, further testing, averages from 2-20 runs.

Chain of human orexin 1 receptor (O43613 whole entry): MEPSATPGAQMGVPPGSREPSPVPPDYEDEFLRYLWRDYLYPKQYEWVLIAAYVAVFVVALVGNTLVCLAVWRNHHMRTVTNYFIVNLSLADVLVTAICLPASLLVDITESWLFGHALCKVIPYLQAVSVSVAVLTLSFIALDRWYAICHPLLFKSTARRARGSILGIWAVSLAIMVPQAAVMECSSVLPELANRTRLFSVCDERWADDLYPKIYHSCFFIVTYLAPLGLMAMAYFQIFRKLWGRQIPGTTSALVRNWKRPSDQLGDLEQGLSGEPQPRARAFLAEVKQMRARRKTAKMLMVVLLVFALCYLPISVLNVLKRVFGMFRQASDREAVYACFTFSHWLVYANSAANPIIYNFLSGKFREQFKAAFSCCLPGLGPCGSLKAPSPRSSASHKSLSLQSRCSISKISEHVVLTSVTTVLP
Chain of rat orexin 1 receptor (P56718 whole entry): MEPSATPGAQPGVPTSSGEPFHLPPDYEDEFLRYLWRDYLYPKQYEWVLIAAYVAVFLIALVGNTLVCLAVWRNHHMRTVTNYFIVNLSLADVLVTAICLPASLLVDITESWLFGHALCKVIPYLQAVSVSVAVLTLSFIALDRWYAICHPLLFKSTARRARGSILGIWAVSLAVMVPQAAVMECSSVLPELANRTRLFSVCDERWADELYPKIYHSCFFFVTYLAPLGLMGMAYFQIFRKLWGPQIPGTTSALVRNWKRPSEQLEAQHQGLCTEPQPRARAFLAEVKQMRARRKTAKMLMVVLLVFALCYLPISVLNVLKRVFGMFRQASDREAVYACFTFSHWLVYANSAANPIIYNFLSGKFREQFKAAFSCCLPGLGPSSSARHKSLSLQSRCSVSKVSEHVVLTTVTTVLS
Chain of human orexin 2 receptor (O43614 whole entry): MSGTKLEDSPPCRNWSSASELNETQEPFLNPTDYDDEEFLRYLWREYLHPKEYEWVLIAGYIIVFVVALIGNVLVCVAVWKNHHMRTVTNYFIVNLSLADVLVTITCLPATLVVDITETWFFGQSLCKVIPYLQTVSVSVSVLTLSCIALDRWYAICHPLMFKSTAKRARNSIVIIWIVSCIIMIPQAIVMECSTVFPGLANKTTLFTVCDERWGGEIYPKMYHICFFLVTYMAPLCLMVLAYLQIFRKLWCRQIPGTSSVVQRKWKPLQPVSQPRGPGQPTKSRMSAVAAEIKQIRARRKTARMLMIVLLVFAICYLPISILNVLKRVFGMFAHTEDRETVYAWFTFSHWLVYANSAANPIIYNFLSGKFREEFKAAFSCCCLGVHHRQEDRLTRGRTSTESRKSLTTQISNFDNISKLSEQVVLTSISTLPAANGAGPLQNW

As to `Cc1cccc(C(=O)N2[C@@H]3CC[C@H]2[C@H](Nc2ccc(C(F)(F)F)cn2)C3)c1-c1ncccn1` [Example 299, (3-methyl-2-(pyrimidin-2-yl)phenyl)((1S,2R,4R)-2-((5-(trifluoromethyl)pyridin-2-yl)amino)-7-azabicyclo[2.2.1]heptan-7-yl)methanone], the Ki at rat orexin 1 receptor (setting [1]) was 16 nM; at human orexin 1 receptor (setting [2]) it was 7 nM; on human orexin 2 receptor (setting [3]) it was 234 nM.

On to `O=C(c1c(F)cccc1-c1ncccn1)N1[C@@H]2CC[C@H]1[C@H](Nc1ccc(C(F)(F)F)cn1)C2` [Example 372, (2-fluoro-6-(pyrimidin-2-yl)phenyl)((1S,2R,4R)-2-((5-(trifluoromethyl)pyridin-2-yl)amino)-7-azabicyclo[2.2.1]heptan-7-yl)methanone], for which the Ki is 19 nM on rat orexin 1 receptor, 13 nM on human orexin 1 receptor and 420 nM on human orexin 2 receptor (setting [3]).

With `O=C(c1cccc(F)c1-n1nccn1)N1[C@@H]2CC[C@H]1[C@H](Nc1ncc(Br)cn1)C2` [Example 317, ((1S,2R,4R)-2-((5-bromopyrimidin-2-yl)amino)-7-azabicyclo[2.2.1]heptan-7-yl)(3-fluoro-2-(2H-1,2,3-triazol-2-yl)phenyl)methanone], the Ki on rat orexin 1 receptor (setting [1]) was found to be 31 nM; on human orexin 1 receptor (setting [2]), 70 nM; on human orexin 2 receptor (setting [3]), 1600 nM.

In the case of `N#Cc1ccc(N[C@@H]2C[C@H]3CC[C@@H]2N3C(=O)c2cccc(F)c2-n2nccn2)nc1` [Example 390, 6-(((1S,2R,4R)-7-(3-fluoro-2-(2H-1,2,3-triazol-2-yl)benzoyl)-7-azabicyclo[2.2.1]heptan-2-yl)amino)nicotinonitrile], the results for the Ki on rat orexin 1 receptor (setting [1]), on human orexin 1 receptor (setting [2]) and on human orexin 2 receptor (setting [3]) were 1500 nM, 1400 nM and above 10000 nM, respectively.

For `O=C(c1ccccc1-c1ncccn1)N1[C@@H]2CC[C@H]1[C@H](Nc1ncc(C(F)(F)F)cn1)C2` [Example 417, (2-(pyrimidin-2-yl)phenyl)((1S,2R,4R)-2-((5-(trifluoromethyl)pyrimidin-2-yl)amino)-7-azabicyclo[2.2.1]heptan-7-yl)methanone], the Ki is 52 nM at rat orexin 1 receptor, 41 nM at human orexin 1 receptor and 1900 nM on human orexin 2 receptor (setting [3]).

On to `O=C(c1ccccc1-c1ncc(F)cn1)N1[C@@H]2CC[C@H]1[C@H](Nc1ncc(C(F)(F)F)cc1F)C2` [Example 460, ((1S,2R,4R)-2-((3-fluoro-5-(trifluoromethyl)pyridin-2-yl)amino)-7-azabicyclo[2.2.1]heptan-7-yl)(2-(5-fluoropyrimidin-2-yl)phenyl)methanone], for which the Ki on rat orexin 1 receptor (setting [4]) is 57 nM; on human orexin 1 receptor (setting [4]), 41 nM; on human orexin 2 receptor (setting [4]), 1300 nM.

As to `Cc1cnc(C(=O)N2[C@@H]3CC[C@H]2[C@H](Nc2ncc(C(F)(F)F)cc2F)C3)c(-n2nccn2)c1` [Example 420, ((1S,2R,4R)-2-((3-fluoro-5-(trifluoromethyl)pyridin-2-yl)amino)-7-azabicyclo[2.2.1]heptan-7-yl)(5-methyl-3-(2H-1,2,3-triazol-2-yl)pyridin-2-yl)methanone], the Ki came out at 100 nM at rat orexin 1 receptor (setting [1]), 114 nM on human orexin 1 receptor (setting [2]) and 884 nM at human orexin 2 receptor (setting [3]).

As to `O=C(c1cccc(F)c1-c1ccccn1)N1[C@@H]2CC[C@H]1[C@H](Nc1cnc(C(F)(F)F)cn1)C2` [Example 408, (3-fluoro-2-(pyridin-2-yl)phenyl)((1S,2R,4R)-2-((5-(trifluoromethyl)pyrazin-2-yl)amino)-7-azabicyclo[2.2.1]heptan-7-yl)methanone], the figures for the Ki at rat orexin 1 receptor, at human orexin 1 receptor and on human orexin 2 receptor (setting [3]) were 12 nM, 19 nM and 150 nM, respectively.

In the case of `O=C(c1cccc(F)c1-c1ncccn1)N1[C@@H]2CC[C@H]1[C@H](Nc1ccc(C(F)F)cn1)C2` [Example 389, ((1S,2R,4R)-2-((5-(difluoromethyl)pyridin-2-yl)amino)-7-azabicyclo[2.2.1]heptan-7-yl)(3-fluoro-2-(pyrimidin-2-yl)phenyl)methanone], the values for the inhibitory constant (Ki) on rat orexin 1 receptor (setting [1]), on human orexin 1 receptor (setting [2]) and on human orexin 2 receptor (setting [3]) were 123 nM, 168 nM and 741 nM, respectively.
